In PMC4637315, “Hydroxycarboxylic acid receptors are essential for breast cancer cells to control their lipid/fatty acid metabolism” (Oncotarget, 2015):

Assays:
Format in all cases: cell-based
HCA1 [1] = molecular target: T1, HCA1 (Homo sapiens, UniProt Q9BXC0); assay: cAMP decrease in BT-474 cells, blocked by pertussis toxin
T1 construct: gene HCAR1; endogenous receptor in BT-474 cells

HCA2 = molecular target: T2, HCA2 (Homo sapiens, UniProt Q8TDS4); assay: AlphaScreen cAMP assay, inhibition of forskolin-induced cAMP in BT-474 cells, pertussis toxin sensitive
T2 construct: gene HCAR2; endogenous receptor in BT-474 cells
T2 sequence (Q8TDS4 whole entry): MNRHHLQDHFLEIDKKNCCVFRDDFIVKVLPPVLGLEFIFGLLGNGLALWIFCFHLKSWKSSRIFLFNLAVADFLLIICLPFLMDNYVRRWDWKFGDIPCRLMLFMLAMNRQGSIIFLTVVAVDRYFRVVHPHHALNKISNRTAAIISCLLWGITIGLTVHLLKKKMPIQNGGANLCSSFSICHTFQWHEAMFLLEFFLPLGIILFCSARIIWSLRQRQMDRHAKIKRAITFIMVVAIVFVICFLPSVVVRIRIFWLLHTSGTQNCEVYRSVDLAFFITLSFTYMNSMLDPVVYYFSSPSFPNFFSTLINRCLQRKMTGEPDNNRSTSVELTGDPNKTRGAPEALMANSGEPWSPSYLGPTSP

HCA3 [2] = molecular target: T3, HCA3 (Homo sapiens, UniProt P49019); assay: as above
T3 construct: gene HCAR3; endogenous receptor in BT-474 cells
T3 sequence (P49019 whole entry): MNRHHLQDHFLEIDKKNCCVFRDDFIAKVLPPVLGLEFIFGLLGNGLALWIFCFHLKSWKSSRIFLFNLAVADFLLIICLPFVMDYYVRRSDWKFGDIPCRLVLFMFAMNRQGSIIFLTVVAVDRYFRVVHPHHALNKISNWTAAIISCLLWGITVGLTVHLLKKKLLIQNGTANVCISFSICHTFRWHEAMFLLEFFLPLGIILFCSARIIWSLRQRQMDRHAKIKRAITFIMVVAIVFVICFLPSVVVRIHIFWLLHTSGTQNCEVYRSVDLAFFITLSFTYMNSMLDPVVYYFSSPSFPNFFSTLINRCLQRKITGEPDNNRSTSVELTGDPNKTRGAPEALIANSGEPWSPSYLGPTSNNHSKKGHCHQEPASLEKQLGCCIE

HCA3 [3] = molecular target: T3, HCA3; assay: cAMP decrease in BT-474 cells, blocked by pertussis toxin
HCA1 [4] = molecular target: T1, HCA1; assay: AlphaScreen cAMP assay, inhibition of forskolin-induced cAMP in BT-474 cells, pertussis toxin sensitive

T1 sequence (Q9BXC0 whole entry): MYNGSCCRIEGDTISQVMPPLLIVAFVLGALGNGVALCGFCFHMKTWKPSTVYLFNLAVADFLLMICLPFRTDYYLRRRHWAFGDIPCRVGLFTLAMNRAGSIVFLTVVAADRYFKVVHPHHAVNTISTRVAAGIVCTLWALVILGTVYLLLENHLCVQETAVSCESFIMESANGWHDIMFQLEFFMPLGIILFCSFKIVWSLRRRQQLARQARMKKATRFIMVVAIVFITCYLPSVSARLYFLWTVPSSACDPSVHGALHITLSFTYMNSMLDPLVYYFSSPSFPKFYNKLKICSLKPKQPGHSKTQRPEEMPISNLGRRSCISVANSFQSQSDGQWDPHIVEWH

O=C(O)c1cc(O)cc(O)c1 [3,5 DHB, 3,5-dihydroxybenzoic acid]
cAMP decrease in BT-474 cells, blocked by pertussis toxin (HCA1 [1]): synthetic HCA agonist-induced decrease in intracellular cAMP levels in BT-474 cells (Figure 3D-F)

CC(O)CC(=O)O (centres unmarked) [3HB, 3-hydroxybutyrate]
EC50 (HCA2): 460 µM

CCCCCC(O)CC(=O)O (centres unmarked) [3HO, 3-hydroxyoctanoate]
EC50 (HCA3 [2]): 9.5 µM

CC(C)n1nnc2cc(C(=O)O)ccc21 [IPBT-5CA, 1-(1-methylethyl)-1H-benzotriazole-5-carboxylic acid]
cAMP decrease in BT-474 cells, blocked by pertussis toxin (HCA3 [3]): synthetic HCA agonist-induced decrease in intracellular cAMP levels in BT-474 cells (Figure 3D-F)

C[C@H](O)C(=O)O [lactate]
EC50 (HCA1 [4]): 3400 µM
